The text below walks through data of patent publication US20260174778A1, “SULFONAMIDE COMPOUND, AND PREPARATION METHOD THEREFOR AND USE THEREOF” (SHANGHAI HENLIUS BIOTECH, INC., priority 2023, published 2026).

This test deals with acetylation level of H3K23 in ZR-75-1 cells. Briefly: Effect on histone acetilation in ER-positive breast cancer cells (Western blotting). The test is classed as cell-based, human. The following applies: 5 days of incubation, from 5 μM, Western blot (FIG. 1). The protocol:
Test Example 4: Assay for Effects of Compounds on Histone Acetylation in Estrogen Receptor-Positive Breast Cancer Cells
Assay Method: Western Blotting Method (Immunoblotting Assay)
The effects of the test compounds on the acetylation level of H3K23 in ZR-75-1 cells (Nanjing Cobioer, CBP60402) were assayed. • 1. On day 1, the cells were plated at 400,000 cells/well (2 mL/well) and cultured overnight in an incubator at 37° C. with 5% CO2. • 2. On day 2, compounds were added starting at 5 μM, with a 10-fold serial dilution across a total of 3 concentration gradients, and DMSO was added to the negative control wells. • 3. On day 6, after 5 days of incubation with compounds, protein samples were collected: An ice box, pre-cooled PBS (4° C.), a cell lysis buffer RIPA (Beyotime, P0013B), and a protease inhibitor (100x) (Thermo Scientific™, 87786) were prepared. Then, 120 μL of the cell lysis buffer was added to each well. The mixture was placed on ice for about 15 min. […] Protein quantification by BCA method (Beyotime, P0009) • Standards (8 concentrations) were prepared, and the samples and the standards were added to a 96-well plate. […] The absorbance was then measured using a microplate reader. […]
The next day, the PVDF membrane was taken out and washed (8 min×3) with TBST (with 0.5% Tween 20). […] After the washing, a luminescence solution (Tanon, 180-506) was added for exposure. […]
On the technique in general: Immunoblotting shows a protein as a band on a membrane.

Consider `COc1ccccc1S(=O)(=O)Nc1noc2cc(Cn3cccn3)cc(OC)c12` [PF-8144, reference compound], for which the “acetylation level of H3K23” value is given as “significantly reduce the acetylation level of H3K23”. The value for `COc1ccc2c(c1S(=O)(=O)Nc1noc3cc(Cn4cccn4)c(F)c(OC)c13)OCCO2` [Compound 28, N-(6-((1H-Pyrazol-1-yl)methyl)-5-fluoro-4-methoxybenzo[d]isoxazol-3-yl)-6-methoxy-2,3-dihydrobenzo[b][1,4]dioxine-5-sulfonamide] was “significantly reduce the acetylation level of H3K23”.
